Results published in patent publication US20120237446A1, “Compounds for binding and imaging amyloid plaques and their use” (BAYER PHARMA AKTIENGESELLSCHAFT, priority 2005, published 2012).

Key:
[1] = biological target: T1, human AD brain homogenate (ADH) (Homo sapiens, UniProt P05067); assay: Competition binding assay with a tritiated amyloid ligand using brain homogenate from AD patients; conditions: competition with 10 nM tritiated amyloid ligand, 100 μg/mL AD frontal cortex homogenate, PBS 0.1% BSA, 3 h, room temperature
T1 construct: from tissue; host or cells: frontal cortex (grey and white matter) of AD patients, homogenised in PBS
T1 sequence (P05067 672-713 limits assumed): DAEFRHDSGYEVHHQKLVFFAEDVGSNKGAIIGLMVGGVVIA
Procedure: A competition assay with a tritiated amyloid ligand was performed in 96-well plates (Greiner bio-one; Cat. 651201; Lot. 06260130) using brain homogenate from AD patients. Homogenates were prepared by homogenizing (Ultra-Turrax, setting 2, 30 s, 24000 rpm) dissected frontal cortex containing grey matter and white matter from AD patients in phosphate buffered saline (PBS, pH 7.4). The homogenate with a concentration of 100 mg wet tissue/mL was divided into aliquots of 300 μL and stored at −80° C. Varying concentrations of the unlabeled test substances were incubated with 100 μg/mL homogenate and 10 nM of the tritiated ligand in PBS, 0.1% BSA (final volume 200 μL) for 3 h at room temperature. Subsequently the binding mixture was filtered through Whatman GF/B filters (wetted with PBS, 0.1% BSA) using a Filtermate 196 harvester (Packard). Filters were then washed twice with PBS, 0.1% BSA and 40 μL scintillator was added to each well before the bound radioactivity was measured in a TopCount devise (Perkin Elmer). Non-specific binding was assessed by adding an excess of the reference ligand to the reaction mixture. Finally IC50 values were calculated with the help of appropriate analysis software.

[2] = biological target: T2, amyloid beta plaques (Homo sapiens, UniProt P05067); assay: Autoradiographical analysis of binding to human brain sections; conditions: cortex sections of AD patients; controls from HC and FTD patients; blocking with excess of cold compound
T2 construct: Alzheimer's disease patients (AD) with amyloid beta plaques; from tissue; host or cells: fresh frozen and paraffin embedded frontal lobe sections of AD patients
T2 sequence (P05067 672-713 limits assumed): as above
Procedure: FIG. 4 Autoradiographical analysis of binding of compound 28 to brain sections from cortex of Alzheimer's disease patients (AD) with amyloid beta plaques. Control sections without amyloid beta pathology stem from healthy volunteers (HC) and fronto-temporal dementia (FTD) patients. Blocking of specific signals was performed with an excess of cold compound. […] Fresh frozen as well as paraffin embedded sections of the frontal lobe from Alzheimer's dementia patients, frontotemporal dementia patients and age matched controls were used for the study. Frozen sections, sliced at 18 μm thickness on a cryostate (Leica, Germany) and paraffin sections, sliced on a sliding microtom (Leica) at a thickness of 6 μm, were mounted onto glass slides (Superfrost Plus, Fa. Menzel, Braunschweig Germany). Frozen sections were allowed to adhere to the slides for several nights at −20° C. The paraffin sections were deparaffinized using routine histological methods. For binding studies sections were incubated with the labeled test compound at 10-20 Bq/μL diluted in 25 mM Hepes buffer, pH 7.4, 0.1% BSA (200-300 μL/slide) for 1.5 h. in a humidified chamber. For blocking experiments an excess of the unlabeled test substance was added to the incubation mixture. […] The air-dried sections were exposed to imaging plates and signals were detected by a phosphoimager device (Fuji BAS5000).

[3] = Biodistribution (brain uptake and wash-out) in mice; assay type: in vivo, male NMRI mice
Procedure: Biodistribution and excretion studies were performed in male NMRI mice (body weight app. 30 g; 3 animals per time point). The animals were kept under normal laboratory conditions at a temperature of 22±2° C. and a dark/light rhythm of 12 h. Food and water were provided ad libitium. During an acclimation period of at least 3 days before the beginning of the study animals were clinically examined to ascertain the absence of abnormal clinical signs.
At 2 min, 5 min, 30 min, 1 h, 4 h post intravenous injection via the tail vein of ca. 185 kBq of the test compound, urine and feces were quantitatively collected. At the same time points, animals were sacrificed by decapitation under isoflurane anaesthesia and organs and tissues of interest were removed for the determination of radioactivity using a gamma-counter. For analysis the decay corrected percentage of the injected dose per tissue weight (% ID/g±standard deviation) was calculated.

IC50 [1] [nM]	SMILES	also measured
28	COc1ccc(NC=CC(=O)c2ccc(F)nc2)cc1 (mixture of isomers) [Compound 11, (E/Z)-1-(6-Fluoropyridin-3-yl)-3-[(4-methoxyphenyl)amino]prop-2-en-1-one]	–
9	O=C(C=CNc1ccc(OCF)cc1)c1ccccc1 (mixture of isomers) [Compound 1, (E/Z)-3-{[4-(Fluoromethoxy)phenyl]amino}-1-phenylprop-2-en-1-one]	–
140	O=C(C=CNc1ccc(OCCF)cc1)c1ccc(-c2ccccc2)cc1 (mixture of isomers) [Compound 14, (E/Z)-1-Biphenyl-4-yl-3-{[4-(2-fluoroethoxy)phenyl]amino}prop-2-en-1-one]	–
400	COc1ccc(NC=CC(=O)c2ccc(F)cc2)cc1 (mixture of isomers) [Compound 5, (E/Z)-1-(4-Fluorophenyl)-3-[(4-methoxyphenyl)amino]prop-2-en-1-one]	–
13	O=C(C=CNc1ccc(OCCF)cc1)c1ccc(Br)cc1 (mixture of isomers) [Compound 3, (E/Z)-1-(4-Bromophenyl)-3-{[4-(2-fluoroethoxy)phenyl]amino}prop-2-en-1-one]	–
4	CN(C)c1ccc(NC=CC(=O)c2ccc(F)nc2)cc1 (mixture of isomers) [Compound 10, (E/Z)-3-{[4-(Dimethylamino)phenyl]amino}-1-(6-fluoropyridin-3-yl)prop-2-en-1-one]	–
46	O=C(C=CNc1ccc(F)c(Br)c1)c1ccccc1 (mixture of isomers) [Compound 13, (E/Z)-3-[(3-Bromo-4-fluorophenyl)amino]-1-phenylprop-2-en-1-one]	–
–	CN(C)c1ccc(NC=CC(=O)c2ccc([18F])nc2)cc1 (mixture of isomers) [Compound 28, (E/Z)-3-{[4-(Dimethylamino)phenyl]amino}-1-(6-[^18F]-fluoropyridin-3-yl)prop-2-en-1-one]	Autoradiographic binding to brain sections (in words) [2]: plaque-specific signals; Brain uptake and elimination of the radioactive background signal from the brain (in words) ([3]; healthy mouse brain, devoid of plaques): advantageous rapid elimination of the radioactive background signal from the brain; Brain uptake at 2 min ([3]; mice, 2 min after intravenous injection, [18F] signal, healthy brain): 7.66 % ID/g; Brain uptake at 30 min ([3]; mice, 30 min after intravenous injection, [18F] signal, healthy brain): 0.78 % ID/g; Brain wash-out ratio [% ID/g at 2 min]/[% ID/g at 30 min] ([3]; mice, intravenous injection, healthy brain): 9.8
17	O=C(C=CNc1ccc(OCCF)cc1)c1ccccc1 (mixture of isomers) [Compound 2, (E/Z)-3-{[4-(2-Fluoroethoxy)phenyl]amino}-1-phenylprop-2-en-1-one]	–
18	O=C(/C=C\Nc1ccc(OCCCF)cc1)c1ccccc1 [Compound 4, (Z)-3-{[4-(3-Fluoropropoxy)phenyl]amino}-1-phenylprop-2-en-1-one]	–
5	CN(C)c1ccc(NC=CC(=O)c2ccc(F)cc2)cc1 (mixture of isomers) [Compound 6, (E/Z)-3-{[4-(Dimethylamino)phenyl]amino}-1-(4-fluorophenyl)prop-2-en-1-one]	–
26	O=C(C=CNc1ccc(F)cc1)c1ccccc1 (mixture of isomers) [Compound 12, (E/Z)-3-[(4-Fluorophenyl)amino]-1-phenylprop-2-en-1-one]	–
258	CN(C)c1ccc(NC=CC(=O)c2ccc(F)c(C(F)(F)F)c2)cc1 (mixture of isomers) [Compound 7, (E/Z)-3-{[4-(Dimethylamino)phenyl]amino}-1-[4-fluoro-3-(trifluoromethyl)phenyl]prop-2-en-1-one]	–
